Legend:
[1] = test system: forebrain-specific brain organoids; experiment: hNPC proliferation in forebrain organoids (phospho-Histone 3), compound alone; assay type: cell-based, human; details: 3 days
Method: (§1) FIGS. 17A-17C. Analysis of potential toxicity of CDKis on human astrocyte viability and hNPC proliferation. Human iPSC-derived astrocytes (BJ line) were treated with each indicated compound (cpd) for 25 hours prior to cell viability analysis as measured in relative luciferase units for ATP production. Values represent mean+s.d. (n=3 cultures; ***P<0.001; **P<0.01; One-way ANOVA for comparison with the DMSO treatment). RLU: relative luminescence units. hNPCs were treated with saline, PHA-690509 (PHA, 1 μM) or Seliciclib (5 μM), 1 hour prior to ZIKV PRVABC59 infection (MOI=0.08). At 72 hours post infection, EdU (10 μM) was added to hNPCs and cells were cultured for additional 4 hours prior to fixation and staining for EdU and DAPI. Values represent mean+s.e.m. (n=3 cultures; ***P<0.001; One-way ANOVA for comparison with the mock treatment). Day 20 forebrain-specific brain organoids were treated with PHA-690509 (1 μM) or Seliciclib (5 μM) for 3 days and hNPC proliferation was evaluated by phospho-Histone 3 (PH3) expression within the ventricular zone. Values represent mean+s.e.m. (n=8 organoids; P>0.05; One-way ANOVA for comparison with the mock treatment).

[2] = test system: hNPCs infected with ZIKV PRVABC59; experiment: hNPC proliferation after ZIKV infection (EdU); assay type: cell-based, human; details: PHA-690509 1 μM, Seliciclib 5 μM
Method: as §1

[3] = test system: ZIKV production from SNB-19 cells; experiment: Infectious ZIKV production from SNB-19 cells, focus-forming unit assay on Vero cells; assay type: cell-based, Zika virus; details: PRVABC59-ZIKV, SNB-19 supernatants on Vero cells, ZIKV-ENV stain; read-out: IC50 against ZIKV infection in human glioblastoma cell culture
Method: FIGS. 2A-1, 2A-2, 2B-1, 2B-2, 2C-1, 2C-2, 2D-1, 2D-2, 2D-3, 2E-1, 2E-2, and 2F. […] Screening of select compounds for antiviral activity against ZIKV infection was carried out. Glioblastoma SNB-19 cells were treated with indicated compound at 10×AC50 (determined in the primary caspase screen) for 1 hour prior to inoculation with FSS-13025 (at MOI=1). Cells were harvested 24 hours post infection and analyzed by Western blot for ZIKV-NS1 or GAPDH (FIGS. 2A-1 and 2A-2). Titration of PHA-690509 on glioblastoma cells for anti-ZIKV activity. Three strains of virus (FSS-13025, PRVABC59, and MR766; MOI=1) were tested. Shown are sample western blot images (FIG. 2B-1) and ImageJ quantification (FIG. 2B-2). Values represent mean±s.d. (n=3; ***P<0.001; One-way ANOVA). Titration of Emricasan on SNB-19 cells for anti-ZIKV activity was conducted similarly (FIGS. 2C-1 and 2C-2). Values represent mean±s.d. […] Sample western blot (FIG. 2D-2) and ImageJ quantification (FIG. 2D-3) are shown for infection with the PRVABC59 strain (MOI=1). Results for additional strains are shown in FIGS. 6A-F. Values represent mean±s.d. […] The concentration of NS1 in the medium of infected SNB-19 cells collected 24 hours post-infection was quantified by a ZIKV-NS1 ELISA kit (FIGS. 2E-1 and 2E-2). […] Cell culture supernatant was collected 24 hours after infection, and infectious virions were quantified for focus-forming units (FFU) using Vero cells. […] Curves represent best fits for calculating IC50 values, and the insets report the calculated IC50 value for each compound.
FIGS. 18A, 18B, 18C-1, 18C-2, 18D, 18E, 18F, 18G-1, and 18G-2. […] 24 hours post infection, supernatants from SNB-19 cells were titrated onto naïve vero cells plated in a monolayer in 96-well plates for infectious focus-forming unit assay as previously described and focus forming units quantified. […] Immunofluorescence (IF) staining (FIG. 18C-1) and quantification (FIG. 18C-2) of ZIKV positive SNB-19 cells following infection with one of three ZIKV strains and treatment with emetine at 0.01, 0.1, or 1 μM. […]
FIG. 21. […] IC50's calculated using graphpad PRISM software. […]

Row | Compound | effect of the treatment itself on hNPC proliferation [1] | rescue of ZIKV-induced reduction of hNPC proliferation [2] | IC50 [3] [nM]
1 | CC[C@H](CO)Nc1nc(NCc2ccccc2)c2ncn(C(C)C)c2n1 [Seleciclib, Seliciclib] | minimal effect on hNPC proliferation in brain organoids | partially rescued ZIKV-induced reduction of hNPC proliferation | –
2 | CCCCCCCC(=O)Oc1ccc(Cl)cc1C(=O)Nc1ccc([N+](=O)[O-])cc1Cl [DK520] | – | – | < 3000
